One assay concerns U87MG cells. The assay can be described thus: Inhibition of in vitro proliferation of U87MG cells (CTG). Format: cell-based. Conditions: Homo sapiens, U-87 MG, 144 h, read-out: IC50 (nM) U87. The protocol:
(§1) This experiment was intended to test the inhibitory activity of the pharmaceutical compounds of the present disclosure against the in vitro proliferation of U87MG cells (glioma cells, Cell Bank, Chinese Academy of Sciences, Catalog #TCHu138) and SK-BR-3 tumor cells (human breast cancer cells, ATCC, Catalog #HTB-30). The cells were treated in vitro with a compound at different concentrations. After 6 days of culture, the proliferation of cells was tested using CTG (CellTiter-Glo® Luminescent Cell Viability Assay, Promega, Catalog #G7573) reagents, and the in vitro activity of the compound was evaluated according to the IC50 value.
(§2) The method of testing the inhibition of the in vitro proliferation of U87MG cells was described below as an example for the method of assaying for the inhibitory activity of the compounds of the present disclosure against the in vitro proliferation of tumor cells. The method is also applicable to, but not limited to, tests for inhibitory activity against the in vitro proliferation of other tumor cells.
(§3) 1. Cell culture: U87MG and SK-BR-3 cells were cultured in EMEM medium (GE, Catalog #SH30024.01) containing 10% FBS and McCoy's 5A medium (Gibco, Catalog #16600-108) containing 10% FBS, respectively.
(§4) 2. Preparation of cells. U87MG and SK-BR-3 cells growing at log phase were washed once with PBS (phosphate buffer, Shanghai BasalMedia Technologies Co., Ltd.) and then digested with 2-3 mL of trypsin (0.25% Trypsin-EDTA (1×), Gibico, Life Technologies) for 2-3 min. After the cells were completely digested, 10-15 mL of cell culture media were added to elute the digested cells. The mixtures were centrifuged at 1000 rpm for 5 min, and the supernatants were discarded. Then the cells were resuspended in 10-20 mL of cell culture media to give single-cell suspensions.
3. Cell plating. The U87MG and SK-BR-3 single-cell suspensions were each well mixed and adjusted with cell culture media to cell densities of 2.75×10^3 cells/mL and 8.25×10^3 cells/mL, respectively. The adjusted cell suspensions were each well mixed and added to 96-well cell culture plates at 180 μL/well. To each of the peripheral wells of the 96-well plates was added 200 μL of media only. The plate was incubated in an incubator for 24 h (37° C., 5% CO2).
4. Preparation of compounds. A compound was dissolved in DMSO (dimethyl sulfoxide, Shanghai Titan Scientific Co., Ltd.) to prepare a stock solution at an initial concentration of 10 mM.
Small molecule compounds were prepared at an initial concentration of 500 nM as follows.
Different test samples at concentration 100 μM (30 μL) were added to the first column of a 96-well U-bottom plate, and 20 μL of DMSO was added to each well of the second column through the eleventh column. The samples in the first column (10 μL) were added to the 20 μL of DMSO in the second column, and the mixtures were well mixed. The mixtures (10 μL) were added to the third column, and so on to the tenth column. The drugs in the plate (5 μL per well) were transferred to EMEM media (95 μL), and the mixtures were well mixed for later use.
5. Sample addition. The test samples prepared at different concentrations (20 μL) were added to a culture plate, with two duplicate wells set for each sample. […]
(§5) 7. Plate reading. The 96-well cell culture plate was taken out and tested in a microplate reader (BMG labtech, PHERAstar FS) for chemiluminescence.
(§6) Data were processed and analyzed using Microsoft Excel and Graphpad Prism 5.

The next assay relates to SK-BR-3 tumor cells. The assay can be described thus: Inhibition of in vitro proliferation of SK-BR-3 tumor cells (CTG). Format: cell-based. Conditions: Homo sapiens, SK-BR-3, 144 h, read-out: IC50 (nM) SK-BR-3. As for the experimental part:
as §1, §2, §3, §4
3. Cell plating. […]
as §5, §6

[1] abbreviates: in vitro proliferation, 6 days, CTG.

Read-outs that look alike come from different tables or passages of the source.

The values that follow come from US20230054458A1, “ANTI-CLAUDIN ANTIBODY-DRUG CONJUGATE AND PHARMACEUTICAL USE THEREOF” (JIANGSU HENGRUI MEDICINE CO., LTD., priority 2019, published 2023).

For the compound `CC[C@@]1(O)C(=O)OCc2c1cc1n(c2=O)Cc2c-1nc1cc(F)c(C)c3c1c2[C@@H](NC(=O)[C@H](O)C1CC1)CC3` [(R)-2-cyclopropyl-N-((1S,9S)-9-ethyl-5-fluoro-9-hydroxy-4-methyl-10,13-dioxo-2,3,9,10,13,15-hexahydro-1H,12H-benzo[de]pyrano[3′,4′:6,7]indolizino[1,2-b]quinolin-1-yl)-2-hydroxyacetamide], the IC50 (commonly the midpoint of a concentration-inhibition curve) in the assay on U87MG cells (setting [1]) came to 0.86 nM; in the assay with SK-BR-3 tumor cells (setting [1]), 0.33 nM. For `CC[C@@]1(O)C(=O)OCc2c1cc1n(c2=O)Cc2c-1nc1cc(F)c(C)c3c1c2[C@@H](NC(=O)C1(O)CC1)CC3` [Example 1, N-((1S,9S)-9-ethyl-5-fluoro-9-hydroxy-4-methyl-10,13-dioxo-2,3,9,10,13,15-hexahydro-1H,12H-benzo[de]pyrano[3′,4′:6,7]indolizino[1,2-b]quinolin-1-yl)-1-hydroxycyclopropane-1-carboxamide], the IC50 in the assay on U87MG cells amounted to 0.23 nM; with SK-BR-3 tumor cells it was 0.12 nM. For `CC[C@@]1(O)C(=O)OCc2c1cc1n(c2=O)Cc2c-1nc1cc(F)c(C)c3c1c2[C@@H](NC(=O)C1(O)CCCC1)CC3` [Example 4, N-((1S,9S)-9-ethyl-5-fluoro-9-hydroxy-4-methyl-10,13-dioxo-2,3,9,10,13,15-hexahydro-1H,12H-benzo[de]pyrano[3′,4′:6,7]indolizino[1,2-b]quinolin-1-yl)-1-hydroxycyclopentane-1-carboxamide], the IC50 with SK-BR-3 tumor cells came to 1.9 nM. `CC[C@@]1(O)C(=O)OCc2c1cc1n(c2=O)Cc2c-1nc1cc(F)c(C)c3c1c2[C@@H](NC(=O)C1(CO)CC1)CC3` [Example 5, N-((1S,9S)-9-ethyl-5-fluoro-9-hydroxy-4-methyl-10,13-dioxo-2,3,9,10,13,15-hexahydro-1H,12H-benzo[de]pyrano[3′,4′:6,7]indolizino[1,2-b]quinolin-1-yl)-1-(hydroxymethyl)cyclopropane-1-carboxamide]: the 50% inhibitory concentration (IC50) in the assay on U87MG cells was 4.81 nM. With `CC[C@@]1(O)C(=O)OCc2c1cc1n(c2=O)Cc2c-1nc1cc(F)c(C)c3c1c2[C@@H](NC(=O)C1(CO)CCC1)CC3` [Example 6, N-((1S,9S)-9-ethyl-5-fluoro-9-hydroxy-4-methyl-10,13-dioxo-2,3,9,10,13,15-hexahydro-1H,12H-benzo[de]pyrano[3′,4′:6,7]indolizino[1,2-b]quinolin-1-yl)-1-(hydroxymethyl)cyclobutane-1-carboxamide], in the assay on U87MG cells (setting [1]), the IC50 amounted to 1.83 nM. As for `CC[C@@]1(O)C(=O)OCc2c1cc1n(c2=O)Cc2c-1nc1cc(F)c(C)c3c1c2[C@@H](NC(=O)C1(O)CCC1)CC3` [Example 7, N-((1S,9S)-9-ethyl-5-fluoro-9-hydroxy-4-methyl-10,13-dioxo-2,3,9,10,13,15-hexahydro-1H,12H-benzo[de]pyrano[3′,4′:6,7]indolizino[1,2-b]quinolin-1-yl)-1-hydroxycyclobutane-1-carboxamide], the half-inhibitory concentration (IC50) in the assay with U87MG cells (setting [1]) stood at 1.95 nM.
